Experimental findings from patent publication US20240254143A1, “OREXIN RECEPTOR AGONISTS AND USES THEREOF” (JAZZ PHARMACEUTICALS IRELAND LIMITED, priority 2021, published 2024) are described below.

This assay concerns the target T1, human recombinant OX2 (hOX2) receptor (Homo sapiens, UniProt O43614).
T1 construct: host or cells: CHO cells
T1 sequence (O43614 1-444): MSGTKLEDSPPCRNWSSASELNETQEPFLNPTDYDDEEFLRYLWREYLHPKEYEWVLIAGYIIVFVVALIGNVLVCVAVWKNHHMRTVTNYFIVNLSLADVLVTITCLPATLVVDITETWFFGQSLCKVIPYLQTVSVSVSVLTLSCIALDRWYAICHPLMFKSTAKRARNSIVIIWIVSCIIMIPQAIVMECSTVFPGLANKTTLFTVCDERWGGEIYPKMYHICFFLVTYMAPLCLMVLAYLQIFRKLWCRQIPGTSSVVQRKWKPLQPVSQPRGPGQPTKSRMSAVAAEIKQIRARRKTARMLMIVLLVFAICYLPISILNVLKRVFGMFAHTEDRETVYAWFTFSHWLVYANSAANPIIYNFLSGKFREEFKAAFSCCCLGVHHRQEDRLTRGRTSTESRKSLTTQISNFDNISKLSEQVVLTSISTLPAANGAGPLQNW
In words: IP-1 accumulation assay (IP-One HTRF) in hOX2-CHO cells. The format is cell-based. The settings on record: 60 min at 37° C., mean of at least two independent experiments, read-out: EC50_OX2R Category. As to the method:
Example 94: IP-1 Accumulation Assay
The accumulation of Inositol-1 Monophosphate (IP-1) was measured using IP-One HTRF® Terbium cryptate based assay (Cisbio) in human recombinant OX1 (hOX1) and at OX2 (hOX2) receptors expressed in CHO cells (DiscoverX) according to the manufacturer's instructions for cells tested in suspension.
hOX1-CHO and hOX2-CHO cells were seeded into white 384-well plates at a density of 20,000 cells/well in Hank's Balanced Salt Solution (HBSS) containing 20 mM HEPES pH 7.4, 50 mM, LiCl and 0.1% and Bovine Serum Albumin (BSA).
Compounds of the present disclosure were tested in a 11 points concentration response curve (CRC) serially diluted in neat DMSO at 200 fold concentrations and added by Echo acoustic liquid handling (Labcyte) to the cells (0.5% DMSO final in the assay). After 60 min of incubation at 37° C. detection reagents, IP1-d2 tracer and anti-IP1-cryptate were diluted in lysis buffer according to the manufacturer's descriptions and added to the cells.
Following 60 mi incubation at room temperature, time-resolved fluorescence (HTRF) was measured at 615 nm and 665 nm by Envision Multilabel reader (Perkin Elmer) and the HTRF ratio (A665/A615×10^4) was calculated.
The IP-1 accumulation response was expressed as percentage of the maximal OX-A response.
Curve fitting and EC50 estimations were carried out using a four-parameter logistic model using XLfit Software. Mean data of EC50 are calculated from at least two independent experiments performed in duplicates.
Turning to `COC(=O)N1CCCC2(CCC(=O)N2)C1Cc1cccc(-c2ccccc2)c1` (mixture of isomers) [Example 28, Methyl 6-({[1,1′-biphenyl]-3-yl}methyl)-2-oxo-1,7-diazaspiro[4.5]decane-7-carboxylate], the EC50 was over 10000 nM.

Regarding `CCNC(=O)N1CCCC2(COCC(=O)N2)C1CO[C@H]1CC[C@@H](c2ccccc2)CC1` (mixture of isomers) [Example 1, (CIS)-N-ethyl-2-oxo-7-({[(CIS)-4-phenylcyclohexyl]oxy}methyl)-4-oxa-1,8-diazaspiro[5.5]undecane-8-carboxamide], the EC50 was under 100 nM.

For the molecule `COC(=O)N1CCCC2(COCC(=O)N2)C1CO[C@H]1CC[C@@H](c2ccccc2)CC1` (mixture of isomers) [Example 4, Methyl (CIS)-2-oxo-7-({[(CIS)-4-phenylcyclohexyl]oxy}methyl)-4-oxa-1,8-diazaspiro[5.5]undecane-8-carboxylate], the EC50 is 1000 to 10000 nM.

Consider `O=C1COCC2(CCCN(C(=O)C3CC3)C2CO[C@H]2CC[C@@H](c3ccccc3)CC2)N1` (mixture of isomers) [Example 7, (CIS)-8-cyclopropanecarbonyl-7-({[(CIS)-4-phenylcyclohexyl]oxy}methyl)-4-oxa-1,8-diazaspiro[5.5]undecan-2-one], for which the EC50 lay in the range of 100 to 1000 nM.

Turning to `CCNC(=O)N1CCCC2(COC(=O)N2)C1CO[C@H]1CC[C@@H](c2ccccc2)CC1` (mixture of isomers) [Example 10], the EC50 was 1000 to 10000 nM.

On to `CCNC(=O)N1CCC2(COCC(=O)N2)C1CO[C@H]1CC[C@@H](c2ccccc2)CC1` (mixture of isomers) [Example 15, (CIS)-N-ethyl-7-oxo-1-({[(CIS)-4-phenylcyclohexyl]oxy}methyl)-9-oxa-2,6-diazaspiro[4.5]decane-2-carboxamide], for which the EC50 fell in the range of 1000 to 10000 nM.

In the case of `CCNC(=O)N1CCC2(COC(=O)N2)C1CO[C@H]1CC[C@@H](c2ccccc2)CC1` (mixture of isomers) [Example 18, (CIS)-N-ethyl-2-oxo-6-({[(CIS)-4-phenylcyclohexyl]oxy}methyl)-3-oxa-1,7-diazaspiro[4.4]nonane-7-carboxamide], the EC50 was over 10000 nM.

Consider `CCNC(=O)N1CCC[C@@]2(CCOC(=O)N2)[C@@H]1Cc1cccc(-c2ccccc2)c1` (racemic) [Example 24, (CIS)-7-({[1,1′-biphenyl]-3-yl}methyl)-N-ethyl-2-oxo-3-oxa-1,8-diazaspiro[5.5]undecane-8-carboxamide], for which the EC50 lay within 1000 to 10000 nM.

Turning to `CCNC(=O)N1CCC[C@@]2(CCOC(=O)N2)[C@H]1Cc1cccc(-c2ccccc2)c1` (racemic) [Example 25, (Trans)-7-({[1,1′-biphenyl]-3-yl}methyl)-N-ethyl-2-oxo-3-oxa-1,8-diazaspiro[5.5]undecane-8-carboxamide], the EC50 was over 10000 nM.

With `CCNC(=O)N1CCC[C@@]2(CNS(=O)(=O)N2)[C@@H]1Cc1cccc(-c2ccccc2)c1` (racemic) [Example 30, (CIS)-6-({[1,1′-biphenyl]-3-yl}methyl)-N-ethyl-2,2-dioxo-2λ^6-thia-1,3,7-triazaspiro[4.5]decane-7-carboxamide], the EC50 was over 10000 nM.

In the case of `CCNC(=O)N1CCCC2(CCCC(=O)N2)C1CO[C@H]1CC[C@@H](c2ccccc2)CC1` (mixture of isomers) [Example 33, rel-(6S,7R)-N-ethyl-2-oxo-7-({[(CIS)-4-phenylcyclohexyl]oxy}methyl)-1,8-diazaspiro[5.5]undecane-8-carboxamide], the EC50 is under 100 nM.

For `CCNC(=O)N1CCCC2(COCS(=O)(=O)N2)C1CO[C@H]1CC[C@@H](c2ccccc2)CC1` (mixture of isomers) [Example 36, rel-(6S,7R)-N-ethyl-2,2-dioxo-7-({[(CIS)-4-phenylcyclohexyl]oxy}methyl)-4-oxa-2λ^6-thia-1,8-diazaspiro[5.5] undecane-8-carboxamide], the EC50 was 100 to 1000 nM.

Regarding `CCNC(=O)N1CCCC2(CCCS(=O)(=O)N2)C1CO[C@H]1CC[C@@H](c2ccccc2)CC1` (mixture of isomers) [Example 37, rel-(6R,7R)-N-ethyl-2,2-dioxo-7-({[(CIS)-4-phenylcyclohexyl]oxy}methyl)-2λ^6-thia-1,8-diazaspiro[5.5] undecane-8-carboxamide], the EC50 was 100 to 1000 nM.

`CCNC(=O)N1CCCC2(COCCS(=O)(=O)N2)C1CO[C@H]1CC[C@@H](c2ccccc2)CC1` (mixture of isomers) [Example 38, rel-(1R,6S)-N-ethyl-8,8-dioxo-1-({[(CIS)-4-phenylcyclohexyl]oxy}methyl)-11-oxa-8λ^6-thia-2,7-diazaspiro[5.6]dodecane-2-carboxamide]: the EC50 was in the range of 100 to 1000 nM.

Consider `CN1CC(=O)NC2(CCCN(C(=O)OCC(F)F)C2CO[C@H]2CC[C@@H](c3ccccc3)CC2)C1` (mixture of isomers) [Example 56, 2,2-difluoroethyl-rel-(6R,7R)-4-methyl-2-oxo-7-({[(CIS)-4-phenylcyclohexyl]oxy}methyl)-1,4,8-triazaspiro [5.5]undecane-8-carboxylate], for which the EC50 lay within 100 to 1000 nM.

In the case of `CN1CCC2(CCCN(C(=O)OCC(F)F)C2CO[C@H]2CC[C@@H](c3ccccc3)CC2)NC1=O` (mixture of isomers) [Example 57, 2,2-difluoroethyl-rel-(6R,7R)-3-methyl-2-oxo-7-({[(CIS)-4-phenylcyclohexyl]oxy}methyl)-1,3,8-triazaspiro [5.5]undecane-8-carboxylate], the EC50 was over 10000 nM.

As for `O=C1NC2(CCCN(C(=O)OCC(F)F)C2CO[C@H]2CC[C@@H](c3ccccc3)CC2)CCO1` (mixture of isomers) [Example 65, 2,2-difluoroethyl-rel-(6R,7R)-2-oxo-7-({[(CIS)-4-phenylcyclohexyl]oxy}methyl)-3-oxa-1,8-diazaspiro[5.5] undecane-8-carboxylate], the EC50 fell in the range of 100 to 1000 nM.

Regarding `O=C1NC2(CCCN(CC(F)(F)F)C2CO[C@H]2CC[C@@H](c3ccccc3)CC2)CCO1` (mixture of isomers) [Example 68, rel-(6R,7R)-7-({[(CIS)-4-phenylcyclohexyl]oxy}methyl)-8-(2,2,2-trifluoroethyl)-3-oxa-1,8-diazaspiro[5.5] undecan-2-one], the EC50 was over 10000 nM.

In the case of `CCNC(=O)N1C[C@@H](C)C2(COCC(=O)N2)C1Cc1cccc(-c2cc(F)cc(F)c2)c1F` (mixture of isomers) [Example 70, rel-(1S,5S)-(4S)-N-ethyl-4-methyl-7-oxo-1-({2,3′,5′-trifluoro-[1,1′-biphenyl]-3-yl}methyl)-9-oxa-2,6-diazaspiro[4.5]decane-2-carboxamide], the EC50 lay in the range of 1000 to 10000 nM.

In the case of `O=C1COCC2(CCN(C(=O)[C@H]3C[C@@H](F)C3)C2Cc2cccc(-c3cc(F)cc(F)c3)c2F)N1` (mixture of isomers) [Example 71, rel-(1S,5S)-2-[(1s,3s)-3-fluorocyclobutanecarbonyl]-1-({2,3′,5′-trifluoro-[1,1′-biphenyl]-3-yl}methyl)-9-oxa-2,6-diazaspiro[4.5]decan-7-one], the EC50 lay within 100 to 1000 nM.

In the case of `CCNC(=O)N1CCCC2(COCC(=O)N2)C1COC1CCN(c2ncc(F)cn2)CC1` (racemic) [Example 76, rel-(6S,7R)-N-ethyl-7-({[1-(5-fluoropyrimidin-2-yl)piperidin-4-yl]oxy}methyl)-2-oxo-4-oxa-1,8-diazaspiro[5.5]undecane-8-carboxamide], the EC50 was 100 to 1000 nM.

`O=C1COCC2(CCCN(C(=O)OCC(F)F)C2COC2CCN(c3ncc(F)cn3)CC2)N1` (racemic) [Example 77, 2,2-difluoroethyl-rel-(6S,7R)-7-({[1-(5-fluoropyrimidin-2-yl)piperidin-4-yl]oxy}methyl)-2-oxo-4-oxa-1,8-diazaspiro[5.5]undecane-8-carboxylate]: the EC50 was in the range of 1000 to 10000 nM.
